Laboratory results: patent publication US6060310A, “Transcription factor decoy and tumor growth inhibitor” (priority 1997, dated 2000)

What was measured:
[1] = system: cancer cells: MCF7, LNCaP, A549, OVCAR 8, LS174T, KB, MCF7-TH, HCT-15; test: Cancer cell growth in vitro (cell counts); format: cell-based, human
Description: (§1) Cells (0.25-1×10^5 /well) were plated in a 6-well plate containing the growth medium at 37° C. The 24-mer-CRE palindrome oligonucleotide (i.e., as described in Example 1) or two-base mismatched control oligonucleotide (i.e., as described in Example 1) was added, one day after seeding, to duplicate wells at varying concentrations. To increase the delivery of oligonucleotides into the cell, transfection reagent DOTAP was added along with the oligonucleotides. Saline treated (untreated), DOTAP treated (0 concentration), CRE, or CRE control oligonucleotide treated cells were harvested after 4 days of treatment, and cell numbers were counted in duplicate by a Coulter Counter. […] In this figure, lines with closed circles represent cells treated with the 24-mer-CRE palindrome oligonucleotide, while lines with open boxes represent cells treated with the control, mismatch oligonucleotide.

[2] = system: CRE-directed transcription in MCF7 cells; test: Transient transcription assay, somatostatin Δ-71 SS-CAT reporter; format: cell-based, human; conditions: for effect on CAT activity / CRE-directed transcription: intact cells, transient transcription assay
Description: The CRE oligonucleotide successfully interfered with the CRE-directed transcription in intact cells. To analyze the effect of CRE oligonucleotide in CRE-directed transcription, a transient transcription assay was performed using a reporter plasmid, somatostatin Δ-71 (CPE-containing promoter)-CAT (chloramphenicol acetyltransferase) fusion gene (Montminy et al., Proc. Natl. Acad. Sci. 83, 6682 [1986]). MCF7 cells were transfected with 5 μg of somatostatin-chloramphenicol acetyltransferase fusion gene (Δ-71 SS-CAT plasmid) and 4 μg of CRE (i.e., the 24-mer described in Example 1) or control oligonucleotide by the use of transfection reagent N-[1-(2,3-Dioleoyloxy)propyl]-N,N,N-trimethylammonium methysulfate (DOTAP). After 5 hours, fresh medium was added, and the cells were harvested at 48 to 72 hours, then assayed for CAT activity. Some samples were also treated with forskolin (10 μM), an compound with adenyl cyclase activating properties (i.e., a compound that increases intracellular cAMP concentrations), for the final 24 hours. Cell lysates were prepared as described by Gorman (Gorman, High efficiency gene transfer into mammalian cells, DNA Cloning, Vol II, pp 143-165, IRL press, Oxford, England [1985]). Lysates (75 μg of protein) were incubated with 0.4 μCi of [^14 C]chloramphenicol, 0.53 mM acetyl-CoA, and 250 mM Tris-HCl, pH 7.8 for 90 minutes at 37° C. Under these conditions, CAT activity was linear with time. Reaction products were analyzed by thin-layer chromatography (Gorman, supra).

[3] = system: normal cells MCF-10A and L-132; test: Normal cell growth in vitro (cell counts); format: cell-based, human; conditions: MCF-10A and L-132, 4 days of treatment
Description: as §1

[4] = system: protein kinase A (PKA) in cultured ovarian cancer cells; test: PKA activity of cell extracts by column chromatography; format: cell-based; conditions: treated versus untreated ovarian cancer cells
Description: (§2) Cultured ovarian cancer cells were treated with and without CRE decoy oligonucleotide using the methods of Example 1 below. Extracts were analyzed by column chromatography for PKA activity.

[5] = system: HCT-15 human MDR colon carcinoma; test: Tumor growth in vivo, HCT-15 xenograft; set-up: species or system athymic mice; conditions: 5x/week, 4 weeks
Description: HCT-15 human MDR colon carcinoma tumor cells (2×10^6 cells) were inoculated subcutaneously into the left flank of athymic mice. The CRE or control oligonucleotide was injected intraperitoneally into mice at 0.01-0.1 mg/0.1 ml saline/mouse, daily, 5×/week for 4 weeks, when tumor size reached 30-50 mg ~10 days after cell inoculation. Tumor volumes were obtained from daily measurements of the longest and shortest diameters and calculated by the formula, 4/3πr^3 where r=(length+width)/4.

[6] = system: bcl-2 protein in MCF-10A cells; test: Bcl-2 protein level by western blot; format: cell-based, human; conditions: MCF-10A normal cells
Description: (§3) Bcl-2 protein levels were measured by standard western blotting techniques known in the art using Anti-bcl-2 antibody.

[7] = system: bcl-2 protein in MCF7 cells; test: Bcl-2 protein level by western blot; format: cell-based, human; conditions: 150 nM, 4 days
Description: as §3

[8] = system: OVCAR8 cells; test: Cell and nuclear morphology (Giemsa, Hoechst 33258), apoptosis; format: cell-based, human; conditions: OVCAR 8
Text: After staining, the whole cells were visualized under an inverted microscope at ×240. […] The nuclear morphology of cells was visualized by a fluorescence microscope (Olympus BH2) at ×2600.

[9] = system: normal human mammary epithelial, lung epithelial and human newborn foreskin fibroblast (HS68) cell lines; test: Growth of normal cell lines; format: cell-based
[10] = system: CRE-protein complex (CRE DNA-binding proteins such as 43 kDa CREB); test: Mobility shift assay of CRE DNA-protein complex formation in nuclear extracts of treated cells; format: cell-based, human; conditions: cells treated 150 nM for 2 days; MCF7, MCF10A and LNCaP; versus saline treated cells
Description: Cells were treated with saline (i.e., control cells), the CRE 24-mer (150 nM for 2 days), or a control oligonucleotide and nuclear extracts were prepared using the method of Dignam (Dignam et al., Nucleic Acid Res. 11, 1475 [1983]). The control oligonucleotide was 5'-[…]-3' (SEQ ID NO: 8), which is a copy of the CRE 24-mer with two mismatched bases included in each consensus sequence motif (i.e., it will not bind as well to transcription factors as will the consensus sequence oligonucleotide). Nuclear extracts were obtained from the cells and were analyzed by a mobility shift assay to compare the amount of CRE-protein bound complex between treated, untreated, and control samples. The DNA binding assay was performed by a method modified from that of Fried and Crothers (Fried and Crothers, Nucleic Acid Res. 9, 6506 [1981]). Briefly, nuclear extracts (10 μg protein) were pre-incubated with poly(dI-dC).cndot. poly (dI-dC) (1 μg), DTT (0.3 mM), and binding buffer (12 mM Tris pH 7.9, 2 mM MgCI2, 60 mM KCl, 0.12 mM EDTA, and 12% glycerol) with or without antiserum (2-4 μl) for 30 min at 4° C. ^32 P-labeled oligonucleotide (double-stranded CRE triplet, 5'-[…]-3'; SEQ ID NO:12) was then added and the reaction mixtures were incubated for 10 min at 37° C. The reaction mixtures were then separated on a 4% polyacrylamide gel at 200 V for 1.5 hours. The gel was dried and autoradiographed. […]

[11] = system: protein kinase A (PKA) in HS68 cells; test: PKA activity of cell extracts by column chromatography; format: cell-based, human; conditions: treated versus untreated HS68 cells
Description: as §2

[12] = Cellular uptake of 32P-labeled oligonucleotide; format: in vitro ADME, human
Description: To examine the efficacy of cellular incorporation of the CRE oligonucleotides, we incubated ^32 P-labeled samples of CRE-palindromeoligonucleotide and control oligonucleotide with MCF7 and MCF10A cells. Cell-associated radioactivity was quantified. Within 5 hrs, about 10% of the total input oligonucleotide accumulated in the cell and the incorporation continued to rise thereafter reaching 20-25% maximum levels at 24 hr of oligonucleotide incubation. The amounts and the rates of the incorporation of oligonucleotide were similar between MCF7 and MCF10A cells and between the CRE-decoy oligonucleotide and control oligonucleotide.

[13] = summary in description, concentration not given

Row | Substance | growth inhibition ([1]; 150 nM, separate experiments) | growth inhibition [1, 13] | bcl-2 level [6] | bcl-2 level [7] | changes in cell morphology and apoptotic nuclei [8] | formation of the CRE-protein complex [10] | effect on CAT activity / CRE-directed transcription [2] | other results
1 | 24-mer CRE-hairpin sense and antisense oligonucleotides in combination: two complementary hairpin-forming oligonucleotides combined, producing a cruciform structure (sense TGCCGTCATGCCGTCATGCCGTCA; antisense TGACGGCATGACGGCATGACGGCA; two hairpin-forming strands combined into cruciform structure, further chemistry not given here) | over 80% | over 80% | – | – | – | – | – | –
2 | 5'-TGACGTCA TGACGTCA TGACGTCA-3' (TGACGTCATGACGTCATGACGTCA; chemistry not given here) [24-mer CRE oligonucleotide, transcription factor decoy] | – | – | did not alter | markedly reduced | appearance of apoptotic nuclei | marked decrease | – | inhibition of the CRE-directed transcription ([2]; 4 μg oligonucleotide with 5 μg Δ-71 SS-CAT, DOTAP, versus Δ-71 CAT alone): greater than 90%; IC50 ([1]; 4 days of treatment, with DOTAP, read-out: IC50, growth inhibition of cancer cells): 0.1 to 0.15 µM; growth of normal cells [3]: unaffected; PKA activity peaks (Type-1 and Type-2) [4]: no peaks; toxicity ([5]; 0.01 or 0.1 mg/mouse i.p. daily): without causing toxicity; inhibition of tumor growth ([5]; 0.01 or 0.1 mg/mouse i.p. daily, versus saline treated tumors): greater than 85%; growth of normal cell lines [9]: not affected; PKA activity [11]: did not show any differences; maximum level of oligonucleotide incorporation ([12]; 24 hr of incubation): 20-25%; total input oligonucleotide accumulated in the cell ([12]; within 5 hrs): about 10%
3 | 5'-TGCCGTCATGCCGTCATGCCGTCA-3' (chemistry not given here) [24-mer CRE-hairpin sense oligonucleotide] | 70% | 70-80% | – | – | – | – | strongly inhibited | effect on CAT activity / CRE-directed transcription ([2]; listed as SEQ ID NO:10): strong inhibition
4 | 5'-TGTGGTCATGTGGTCATGTGGTCA-3' (DNA, backbone and methylation of C not given here) [reference compound] | – | – | no effect | no effect | not observed | same or similar intensity band | no inhibitory effect | growth inhibitory effect ([1]; 4 days of treatment, with DOTAP): no growth inhibitory effect; tumor growth inhibitory effect ([5]; i.p. daily): no growth inhibitory effect
5 | 5'-TGACGGCATGACGGCATGACGGCA-3' (chemistry not given here) | 30% | 30% | – | – | – | – | – | –
6 | 5'-GCTGACGTCGGCCTGACGTCAGC-3' (chemistry not given here) [SEQ ID NO:3, non-palindromic hairpin forming CRE oligonucleotide] | – | – | – | – | – | – | interfered with CRE-directed transcription | –
